{"source": "paper PMC8348142", "about": "“Antimicrobial Peptide Modifications against Clinically Isolated Antibiotic-Resistant Salmonella” (Molecules, 2021)", "key": {"[1]": {"experiment": "Overall hydrophobicity from RP-HPLC data (percent acetonitrile at elution)", "format": "physicochemical", "conditions": "percentage of acetonitrile at which the peptide eluted, more % ACN = more hydrophobic"}, "[2]": {"test_system": "clinical Salmonella isolates", "experiment": "MIC, broth microdilution", "format": "cell-based", "conditions": "for MIC: MHB, 5 × 10^5 CFU/mL, 37 °C, 18 h, duplicate", "protocol": "All 12 isolates of Salmonella used in this study were clinical isolates and anonymous left-overs from laboratory diagnoses. They were maintained in a 20% glycerol (Sigma-Aldrich) stock at −80 °C and further cultured on Mueller-Hinton agar (MHA, Oxoid, Hampshire, UK) at 37 °C for 18 h to obtain single colonies for antimicrobial assays. This study was approved by the Ethics Committee of the Faculty of Tropical Medicine (Mahidol University, Bangkok, Thailand; MUTM-EXMPT 2017-007).\nMIC was determined using the broth microdilution method described by Hancock with some modifications. Briefly, bacterial colonies grown from the MHA were prepared in MHB (Oxoid) as a 0.5 McFarland suspension (which is equal to 1 × 10^8 CFU/mL), and was further 200-fold diluted by the MHB (5 × 10^5 CFU/mL). The bacterial suspension (50 µL) was mixed with 2-fold serial dilutions of peptide (5.5 µL) achieving final concentrations of 256 to 1 µM using a round-bottom polypropylene (PP) 96-well plate (Greiner Bio-One). The plate was incubated at 37 °C for 18 h including incubating peptide free-bacteria as positive growth control, and MHB as negative growth control. After the incubation, the lowest concentration with no visible growth was defined as a MIC value. The assay was performed in a duplicate manner."}, "[3]": {"test_system": "sheep red blood cells", "experiment": "Hemolytic activity assay", "format": "cell-based", "conditions": "for percent hemolysis: 2% sRBCs in PBS, 37 °C, 1 h, OD540, triplicate mean", "protocol": "The peptide toxicity to the mammalian system was screened based on the hemolytic test by measuring the hemoglobin released from ruptured red blood cells (RBCs). In this study, sheep RBCs (sRBCs) were employed. They were thrice washed and prepared as a suspension in phosphate-buffered saline (PBS, Oxoid). A suspension of 2% sRBCs was incubated with 2-fold serial dilutions of peptide (final concentrations; 256 to 1 µM in a total volume of 200 µL) at 37 °C for 1 h. The solutions of 0.1% (final concentration) Triton X-100 (Sigma-Aldrich) and PBS containing the peptide solvent were used instead of the peptides as the controls of hemolysis at 100% and 0%, respectively. Thereafter, the post-incubated suspensions were centrifuged (1000× g, 3 min) to pelletize residual sRBCs. The supernatants were then transferred into a flat-bottom PS 96-well plate and were measured the absorbance at 540 nm (OD540) by a microplate reader. The test was conducted in triplicate and the mean OD540 was used to calculate the hemolysis (%) as; ((OD540 (peptide) − OD540 (PBS + peptide solvent))/(OD540 (0.1% Triton X-100) − OD540 (PBS + peptide solvent))) × 100. The hemolytic concentration 50 (HC50), a concentration inducing 50% hemolysis, was determined.\nThe GraphPad Prism version 7.00 (GraphPad Software, La Jolla, CA, USA) was applied for all statistical analyses and data visualizations. Replicate quantitative results were calculated and shown as mean ± SD, unless otherwise specified. The HC50 values were determined using nonlinear regression analysis. The paired t-test and repeated measures one-way ANOVA with Tukey’s multiple comparison test were applied to compare between 2 groups and among 3 or more groups, respectively. The comparisons were considered as a statistically significant difference when a p-value < 0.05."}, "[4]": {"test_system": "clinical Salmonella isolates", "experiment": "Antibiofilm: inhibition of initial cell attachment, crystal violet", "format": "cell-based", "conditions": "24 h, 30 °C, polystyrene plate, crystal violet OD590", "protocol": "The effect of peptides on biofilm formation was tested according to the method described by Sandasi et al. with slight modifications.\nBacterial suspensions of 5 × 10^5 CFU/mL in MHB were prepared as described above. […] The plates were incubated to grow biofilms for 24 h at 30 °C. The incubations of bacteria without peptide and MHB without bacteria were employed as positive (100%) control and negative (0%) control for biofilm growth, respectively. The assay was carried out twice.\nThe biofilm biomasses obtained from the antibiofilm assay plates were quantified by the crystal violet (CV) staining method with minor modifications. After incubating the plates to grow the biofilms, the growth medium and free bacterial cells were gently removed from the wells and then rinsed thrice with water. The plates were air-dried and subsequently 60 °C oven-dried for 30 min. Each well was stained with 125 µL of 0.1% CV (Merck, Burlington, MA, USA) solution for 15 min. The solution was removed from the wells and further thrice rinsed with water. The biomass bound CV was dissolved with 125 µL of 95% ethanol (Merck) for 5 min, and was transferred into a flat-bottom PS 96-well plate (Jet Biofil, Guangzhou, China). Absorbance values at 590 nm (OD590) of the dissolved solutions were measured by a microplate reader (Tecan Sunrise, Männedorf, Switzerland). Mean OD590 values were determined and all were subtracted by mean OD590 of MHB (negative control) prior to calculate the inhibition (%) as; ((OD590 (no peptide) − OD590 (peptide))/(OD590 (no peptide)) × 100."}}, "note": "Marks after values point to notes of the source that are not given here. Ends that are not written are not given here."}
{"substance": "FIRRIARLLRRIF-NH2 [Kn2-5R-NH2]", "values": [{"measurement": "ACN (%) at elution, overall hydrophobicity", "setting": "[1]", "value": 42.1, "unit": "%"}, {"measurement": "GM of MIC (GMMIC)", "setting": "[2]; geometric mean over 12 clinical Salmonella isolates", "value": 4, "unit": "µM"}, {"measurement": "MIC", "setting": "[2]; isolate 5 (Enteritidis, blood; resistant AMP, SXT, KZ)", "value": 4, "unit": "µM"}, {"measurement": "MIC", "setting": "[2]; isolate 7 (Typhimurium, blood; resistant AMP, CN, TE, NA, SXT)", "value": 4, "unit": "µM"}, {"measurement": "MIC", "setting": "[2]; isolate 11 (I 1,4:i:-, blood; resistant AMP, TE, NA, SXT, C)", "value": 4, "unit": "µM"}, {"measurement": "MIC", "setting": "[2]; isolate 18 (Stanley, urine; resistant TE, SXT, C)", "value": 4, "unit": "µM"}, {"measurement": "MIC", "setting": "[2]; isolate 26 (Typhimurium, urine; resistant TZP, TE, NA)", "value": 4, "unit": "µM"}, {"measurement": "MIC", "setting": "[2]; isolate 27 (Typhimurium, stool; resistant AMP, TE, NA, SXT, CIP)", "value": 4, "unit": "µM"}, {"measurement": "MIC", "setting": "[2]; isolate 55 (Typhimurium, blood; resistant AMP, SXT, C, TE)", "value": 4, "unit": "µM"}, {"measurement": "MIC", "setting": "[2]; isolate 61 (Enteritidis, blood; resistant AMP, TE, NA, SXT)", "value": 4, "unit": "µM"}, {"measurement": "MIC", "setting": "[2]; isolate 69 (Typhimurium, stool; resistant AMP)", "value": 4, "unit": "µM"}, {"measurement": "MIC", "setting": "[2]; isolate 76 (Enteritidis, CSF; resistant NA)", "value": 4, "unit": "µM"}, {"measurement": "MIC", "setting": "[2]; isolate 78 (Enteritidis, blood; resistant TE, CIP, NA, SXT)", "value": 4, "unit": "µM"}, {"measurement": "MIC", "setting": "[2]; isolate 107 (Typhimurium, stool; susceptible)", "value": 4, "unit": "µM"}, {"measurement": "HC50 (hemolytic concentration 50)", "setting": "[3]; concentration inducing 50% hemolysis of sRBCs, nonlinear regression, unit (µM)", "value": 67.09, "unit": "µM"}, {"measurement": "percent hemolysis", "setting": "[3]; peptide 1 µM", "value": 0.1, "unit": "%"}, {"measurement": "percent hemolysis", "setting": "[3]; peptide 2 µM", "value": 0.3, "unit": "%"}, {"measurement": "percent hemolysis", "setting": "[3]; peptide 4 µM", "value": "2 * %"}, {"measurement": "percent hemolysis", "setting": "[3]; peptide 8 µM", "value": 2.5, "unit": "%"}, {"measurement": "percent hemolysis", "setting": "[3]; peptide 16 µM", "value": 5.4, "unit": "%"}, {"measurement": "percent hemolysis", "setting": "[3]; peptide 32 µM", "value": 16.9, "unit": "%"}, {"measurement": "percent hemolysis", "setting": "[3]; peptide 64 µM", "value": 40.3, "unit": "%"}, {"measurement": "percent hemolysis", "setting": "[3]; peptide 128 µM", "value": 99.3, "unit": "%"}, {"measurement": "percent hemolysis", "setting": "[3]; peptide 256 µM", "value": 99.5, "unit": "%"}, {"measurement": "concentration required for the initiation of hemolysis", "setting": "[3]; sRBCs, 60 min, 256–1 µM tested", "value": 1000, "unit": "nM"}, {"measurement": "Inhibition (%) of cell attachment", "setting": "[4]; 0.25MBC, isolate 5", "value": 69, "unit": "%"}, {"measurement": "Inhibition (%) of cell attachment", "setting": "[4]; 0.25MBC, isolate 7", "value": 73.6, "unit": "%"}, {"measurement": "Inhibition (%) of cell attachment", "setting": "[4]; 0.25MBC, isolate 11", "value": 64.3, "unit": "%"}, {"measurement": "Inhibition (%) of cell attachment", "setting": "[4]; 0.25MBC, isolate 18", "value": 25, "unit": "%"}, {"measurement": "Inhibition (%) of cell attachment", "setting": "[4]; 0.25MBC, isolate 26", "value": 88.2, "unit": "%"}, {"measurement": "Inhibition (%) of cell attachment", "setting": "[4]; 0.25MBC, isolate 27", "value": 79.1, "unit": "%"}, {"measurement": "Inhibition (%) of cell attachment", "setting": "[4]; 0.25MBC, isolate 55", "value": 73.3, "unit": "%"}, {"measurement": "Inhibition (%) of cell attachment", "setting": "[4]; 0.25MBC, isolate 61", "value": 33.3, "unit": "%"}, {"measurement": "Inhibition (%) of cell attachment", "setting": "[4]; 0.25MBC, isolate 69", "value": 40, "unit": "%"}, {"measurement": "Inhibition (%) of cell attachment", "setting": "[4]; 0.25MBC, isolate 76", "value": 79.1, "unit": "%"}, {"measurement": "Inhibition (%) of cell attachment", "setting": "[4]; 0.25MBC, isolate 78", "value": 43.9, "unit": "%"}, {"measurement": "Inhibition (%) of cell attachment", "setting": "[4]; 0.25MBC, isolate 107", "value": 78.3, "unit": "%"}, {"measurement": "Inhibition (%) of cell attachment", "setting": "[4]; 0.5MBC, isolate 5", "value": 100, "unit": "%"}, {"measurement": "Inhibition (%) of cell attachment", "setting": "[4]; 0.5MBC, isolate 7", "value": 93, "unit": "%"}, {"measurement": "Inhibition (%) of cell attachment", "setting": "[4]; 0.5MBC, isolate 11", "value": 100, "unit": "%"}, {"measurement": "Inhibition (%) of cell attachment", "setting": "[4]; 0.5MBC, isolate 18", "value": 58.3, "unit": "%"}, {"measurement": "Inhibition (%) of cell attachment", "setting": "[4]; 0.5MBC, isolate 26", "value": 100, "unit": "%"}, {"measurement": "Inhibition (%) of cell attachment", "setting": "[4]; 0.5MBC, isolate 27", "value": 100, "unit": "%"}, {"measurement": "Inhibition (%) of cell attachment", "setting": "[4]; 0.5MBC, isolate 55", "value": 84.1, "unit": "%"}, {"measurement": "Inhibition (%) of cell attachment", "setting": "[4]; 0.5MBC, isolate 61", "value": 63.2, "unit": "%"}, {"measurement": "Inhibition (%) of cell attachment", "setting": "[4]; 0.5MBC, isolate 69", "value": 64.8, "unit": "%"}, {"measurement": "Inhibition (%) of cell attachment", "setting": "[4]; 0.5MBC, isolate 76", "value": 100, "unit": "%"}, {"measurement": "Inhibition (%) of cell attachment", "setting": "[4]; 0.5MBC, isolate 78", "value": 98.9, "unit": "%"}, {"measurement": "Inhibition (%) of cell attachment", "setting": "[4]; 0.5MBC, isolate 107", "value": 100, "unit": "%"}]}
